compound: CC1=C(C(=NN1)C)CC2=C(C3=C(S2)N(C(=O)N(C3=O)C)CC(C)C)C(=O)N4C[C@@H](CO4)O + CC(=O)c1c(C)c2cnc(Nc3ccc(N4CCNCC4)cn3)nc2n(C2CCCC2)c1=O [Palbociclib] (partner 0.5 µM); test: relative viability (nuclei count vs DMSO), 5 days (fraction); higher = more cells survive; conditions: first compound 0.0025 µM
Summary of the method: (§1)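 Lung cancer cell lines were pin-tool dosed in 1536-well plates on the day after seeding, with either a lone drug or a fixed anchor-drug dose plus five library-drug doses (not always all listed) in √10 steps. Nuclei were counted on 4× images after 5 days. Relative viability is the ratio of treated-well to vehicle-well nuclei counts, with each value a median of duplicate plates.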

Cell Line | relative viability
HARA | 0.308
HCC-78 | 0.534
NCI-H322M | 0.557
LCLC-97TM1 | 0.262
NCI-H2009 | 0.222
A-427 | 0.524
NCI-H441 | 0.245
NCI-H661 | 0.395
NCI-H1734 | 0.328
NCI-H460 | 0.181
NCI-H2347 | 0.426
SK-LU-1 | 0.375
NCI-H1395 | 0.682
201T | 0.358
NCI-H1915 | 0.563
HCC-827 | 0.403

Cell Line | relative viability
LXF-289 | 0.525
NCI-H23 | 0.508
NCI-H647 | 0.376
CAL-12T | 0.481
NCI-H1651 | 0.54
EPLC-272H | 0.322
NCI-H2228 | 0.794
NCI-H1792 | 0.777
NCI-H1355 | 0.413
NCI-H3122 | 0.165
NCI-H1437 | 0.357
NCI-H1755 | 0.452
NCI-H2023 | 0.305
HCC-15 | 0.788
NCI-H1793 | 0.3
PC-14 | 0.453

same assay, conditions: first compound 0.007906 µM

Cell Line | relative viability
HARA | 0.199
HCC-78 | 0.546
NCI-H322M | 0.467
LCLC-97TM1 | 0.266
NCI-H2009 | 0.206
A-427 | 0.514
NCI-H441 | 0.217
NCI-H661 | 0.426
NCI-H1734 | 0.396
NCI-H460 | 0.199
NCI-H2347 | 0.4
SK-LU-1 | 0.349
NCI-H1395 | 0.614
201T | 0.355
NCI-H1915 | 0.574
HCC-827 | 0.414

Cell Line | relative viability
LXF-289 | 0.605
NCI-H23 | 0.639
NCI-H647 | 0.409
CAL-12T | 0.413
NCI-H1651 | 0.562
EPLC-272H | 0.315
NCI-H2228 | 0.768
NCI-H1792 | 0.747
NCI-H1355 | 0.459
NCI-H3122 | 0.241
NCI-H1437 | 0.348
NCI-H1755 | 0.462
NCI-H2023 | 0.375
HCC-15 | 0.77
NCI-H1793 | 0.36
PC-14 | 0.45

same assay, conditions: first compound 0.025 µM

Cell Line | relative viability
HARA | 0.28
HCC-78 | 0.464
NCI-H322M | 0.536
LCLC-97TM1 | 0.279
NCI-H2009 | 0.221
A-427 | 0.515
NCI-H441 | 0.255
NCI-H661 | 0.455
NCI-H1734 | 0.349
NCI-H460 | 0.204
NCI-H2347 | 0.431
SK-LU-1 | 0.294
NCI-H1395 | 0.595
201T | 0.369
NCI-H1915 | 0.522
HCC-827 | 0.339

Cell Line | relative viability
LXF-289 | 0.574
NCI-H23 | 0.559
NCI-H647 | 0.441
CAL-12T | 0.484
NCI-H1651 | 0.493
EPLC-272H | 0.319
NCI-H2228 | 0.779
NCI-H1792 | 0.665
NCI-H1355 | 0.408
NCI-H3122 | 0.205
NCI-H1437 | 0.284
NCI-H1755 | 0.412
NCI-H2023 | 0.296
HCC-15 | 0.726
NCI-H1793 | 0.324
PC-14 | 0.493

same assay, conditions: first compound 0.07906 µM

Cell Line | relative viability
HARA | 0.247
HCC-78 | 0.469
NCI-H322M | 0.441
LCLC-97TM1 | 0.196
NCI-H2009 | 0.319
A-427 | 0.548
NCI-H441 | 0.237
NCI-H661 | 0.396
NCI-H1734 | 0.307
NCI-H460 | 0.226
NCI-H2347 | 0.36
SK-LU-1 | 0.278
NCI-H1395 | 0.606
201T | 0.327
NCI-H1915 | 0.532
HCC-827 | 0.541

Cell Line | relative viability
LXF-289 | 0.586
NCI-H23 | 0.518
NCI-H647 | 0.518
CAL-12T | 0.574
NCI-H1651 | 0.532
EPLC-272H | 0.324
NCI-H2228 | 0.793
NCI-H1792 | 0.604
NCI-H1355 | 0.401
NCI-H3122 | 0.176
NCI-H1437 | 0.296
NCI-H1755 | 0.424
NCI-H2023 | 0.402
HCC-15 | 0.727
NCI-H1793 | 0.313
PC-14 | 0.468

same assay, conditions: first compound 0.25 µM

Cell Line | relative viability
HARA | 0.264
HCC-78 | 0.44
NCI-H322M | 0.505
LCLC-97TM1 | 0.247
NCI-H2009 | 0.175
A-427 | 0.578
NCI-H441 | 0.215
NCI-H661 | 0.426
NCI-H1734 | 0.322
NCI-H460 | 0.217
NCI-H2347 | 0.445
SK-LU-1 | 0.281
NCI-H1395 | 0.663
201T | 0.367
NCI-H1915 | 0.539
HCC-827 | 0.466

Cell Line | relative viability
LXF-289 | 0.613
NCI-H23 | 0.665
NCI-H647 | 0.287
CAL-12T | 0.418
NCI-H1651 | 0.508
EPLC-272H | 0.331
NCI-H2228 | 0.933
NCI-H1792 | 0.627
NCI-H1355 | 0.414
NCI-H3122 | 0.209
NCI-H1437 | 0.303
NCI-H1755 | 0.45
NCI-H2023 | 0.491
HCC-15 | 0.788
NCI-H1793 | 0.3
PC-14 | 0.646

compound: CC1=C(C(=NN1)C)CC2=C(C3=C(S2)N(C(=O)N(C3=O)C)CC(C)C)C(=O)N4C[C@@H](CO4)O + COc1cccc2cc(-c3nc([C@H]4CC[C@H](C(=O)O)CC4)n4ncnc(N)c34)[nH]c12 [OSI-027] (partner 0.5 µM); test: as above; conditions: first compound 0.0025 µM
Summary of the method: as §1

Cell Line | relative viability
HARA | 0.548
HCC-78 | 0.388
NCI-H322M | 0.529
LCLC-97TM1 | 0.665
NCI-H2009 | 0.742
A-427 | 0.444
NCI-H441 | 0.601
NCI-H661 | 0.783
NCI-H1734 | 0.682
NCI-H460 | 0.718
NCI-H2347 | 0.472
SK-LU-1 | 0.311
NCI-H1395 | 0.658
201T | 0.843
NCI-H1915 | 0.647
HCC-827 | 0.812

Cell Line | relative viability
LXF-289 | 0.902
NCI-H23 | 0.814
NCI-H647 | 0.727
CAL-12T | 0.746
NCI-H1651 | 0.726
EPLC-272H | 0.275
NCI-H2228 | 0.68
NCI-H1792 | 0.739
NCI-H1355 | 0.458
NCI-H3122 | 0.912
NCI-H1437 | 0.894
NCI-H1755 | 0.767
NCI-H2023 | 0.465
HCC-15 | 0.707
NCI-H1793 | 0.298
PC-14 | 0.785

same assay, conditions: first compound 0.007906 µM

Cell Line | relative viability
HARA | 0.565
HCC-78 | 0.38
NCI-H322M | 0.539
LCLC-97TM1 | 0.515
NCI-H2009 | 0.701
A-427 | 0.569
NCI-H441 | 0.634
NCI-H661 | 0.636
NCI-H1734 | 0.592
NCI-H460 | 0.821
NCI-H2347 | 0.496
SK-LU-1 | 0.227
NCI-H1395 | 0.603
201T | 0.79
NCI-H1915 | 0.667
HCC-827 | 0.793

Cell Line | relative viability
LXF-289 | 0.785
NCI-H23 | 0.557
NCI-H647 | 0.805
CAL-12T | 0.928
NCI-H1651 | 0.734
EPLC-272H | 0.225
NCI-H2228 | 0.61
NCI-H1792 | 0.816
NCI-H1355 | 0.441
NCI-H3122 | 0.765
NCI-H1437 | 0.892
NCI-H1755 | 0.743
NCI-H2023 | 0.423
HCC-15 | 0.705
NCI-H1793 | 0.289
PC-14 | 1.19

same assay, conditions: first compound 0.025 µM

Cell Line | relative viability
HARA | 0.513
HCC-78 | 0.343
NCI-H322M | 0.483
LCLC-97TM1 | 0.513
NCI-H2009 | 0.616
A-427 | 0.425
NCI-H441 | 0.707
NCI-H661 | 0.663
NCI-H1734 | 0.65
NCI-H460 | 0.683
NCI-H2347 | 0.444
SK-LU-1 | 0.217
NCI-H1395 | 0.409
201T | 0.72
NCI-H1915 | 0.646
HCC-827 | 0.756

Cell Line | relative viability
LXF-289 | 0.734
NCI-H23 | 0.701
NCI-H647 | 0.805
CAL-12T | 0.538
NCI-H1651 | 0.846
EPLC-272H | 0.312
NCI-H2228 | 0.683
NCI-H1792 | 0.717
NCI-H1355 | 0.425
NCI-H3122 | 0.927
NCI-H1437 | 0.867
NCI-H1755 | 0.684
NCI-H2023 | 0.481
HCC-15 | 0.691
NCI-H1793 | 0.262
PC-14 | 0.78

same assay, conditions: first compound 0.07906 µM

Cell Line | relative viability
HARA | 0.506
HCC-78 | 0.357
NCI-H322M | 0.64
LCLC-97TM1 | 0.548
NCI-H2009 | 0.706
A-427 | 0.549
NCI-H441 | 0.665
NCI-H661 | 0.677
NCI-H1734 | 0.617
NCI-H460 | 0.648
NCI-H2347 | 0.331
SK-LU-1 | 0.246
NCI-H1395 | 0.578
201T | 0.642
NCI-H1915 | 0.694
HCC-827 | 0.759

Cell Line | relative viability
LXF-289 | 0.819
NCI-H23 | 0.475
NCI-H647 | 0.769
CAL-12T | 0.661
NCI-H1651 | 0.659
EPLC-272H | 0.314
NCI-H2228 | 0.609
NCI-H1792 | 0.645
NCI-H1355 | 0.464
NCI-H3122 | 1.04
NCI-H1437 | 0.93
NCI-H1755 | 0.702
NCI-H2023 | 0.473
HCC-15 | 0.737
NCI-H1793 | 0.242
PC-14 | 1.01

same assay, conditions: first compound 0.25 µM

Cell Line | relative viability
HARA | 0.489
HCC-78 | 0.374
NCI-H322M | 0.5
LCLC-97TM1 | 0.564
NCI-H2009 | 0.695
A-427 | 0.477
NCI-H441 | 0.677
NCI-H661 | 0.862
NCI-H1734 | 0.624
NCI-H460 | 0.779
NCI-H2347 | 0.354
SK-LU-1 | 0.229
NCI-H1395 | 0.58
201T | 0.71
NCI-H1915 | 0.659
HCC-827 | 0.952
LXF-289 | 0.749
NCI-H23 | 0.602
NCI-H647 | 0.569
CAL-12T | 0.806
NCI-H1651 | 0.662
EPLC-272H | 0.308
NCI-H2228 | 0.649
NCI-H1792 | 0.652
NCI-H1355 | 0.39
NCI-H3122 | 0.989
NCI-H1437 | 0.857
NCI-H1755 | 0.704
NCI-H2023 | 0.393
HCC-15 | 0.784

From the supplement of paper PMC10307832
